Measured values from the supplement of paper PMC11451515.

Key:
Conditions in all cases: 48 h
SEM cells [1] = test: AUC of viability dose-response curve (% viability x log10 dose units); higher = less sensitive
Method in brief: (§1)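 Seeding of medium-adapted leukemia cells was at 500 or 1000 cells/well in 1536-well plates, followed by 48 h at 37°C with library compounds in DMSO at 11 threefold doses from 47 μM to 0.79 nM. CellTiter-Glo One luminescence was normalised per plate to DMSO and cell-free wells and fitted as a four-parameter log-logistic function of log10 dose. Area under the curve was integrated by trapezoidal rule, with curves exceeding full viability scaled and curves failing quality control removed.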

NOMO1 [2] = test: as above
Method in brief: as §1

P12-Ichikawa [3] = test: as above
Method in brief: as §1

SEM cells [4] = test: cell viability relative to DMSO control; higher = less cytotoxic
Method in brief: (§2)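 NOMO1 or SEM (500 cells/well) or P12-Ichikawa (1000 cells/well) leukemia cells were adapted for at least four passages in each medium. They were seeded in 1536-well plates (5 μl) and pin-dosed with library compounds in DMSO over an 11-point threefold series, 47 μM to 0.79 nM. CellTiter-Glo One luminescence was read after 48 h at 37°C. Viability is the per-plate percentage relative to DMSO wells, with cell-free wells as background.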

NOMO1 [5] = test: as above
Method in brief: as §2

P12-Ichikawa [6] = test: as above
Method in brief: as §2

COC(=O)Nc1cc(Nc2cc(NC3CC3)c3ncc(C#N)n3n2)c(Cl)c(N2CCN(C)CC2)c1
AUC of viability dose-response curve
Conditions	NOMO1 [2]	P12-Ichikawa [3]	SEM cells [1]
HPLM + 10% dialyzed FBS	384	423	363
RPMI 5 mM glucose + 10% FBS	385	400	346
RPMI 5 mM glucose + 10% dialyzed FBS	368	392	328

cell viability [%]
Conditions	NOMO1 [5]	P12-Ichikawa [6]	SEM cells [4]
HPLM + 10% dialyzed FBS, 0.000781 µM	117	107	97.9
HPLM + 10% dialyzed FBS, 0.00234 µM	114	102	103
HPLM + 10% dialyzed FBS, 0.00702 µM	104	102	98.7
HPLM + 10% dialyzed FBS, 0.0211 µM	107	111	98.5
HPLM + 10% dialyzed FBS, 0.0632 µM	108	106	98
HPLM + 10% dialyzed FBS, 0.19 µM	112	97.4	102
HPLM + 10% dialyzed FBS, 0.569 µM	93.7	106	86.5
HPLM + 10% dialyzed FBS, 1.71 µM	86.7	103	77.7
HPLM + 10% dialyzed FBS, 5.12 µM	64.5	76.8	37.9
HPLM + 10% dialyzed FBS, 15.4 µM	45.6	65.3	5.22
HPLM + 10% dialyzed FBS, 46.1 µM	4.67	3.92	4.93
RPMI 5 mM glucose + 10% FBS, 0.000781 µM	88.7	104	–
RPMI 5 mM glucose + 10% FBS, 0.00234 µM	112	104	–
RPMI 5 mM glucose + 10% FBS, 0.00702 µM	108	102	–
RPMI 5 mM glucose + 10% FBS, 0.0211 µM	110	106	–
RPMI 5 mM glucose + 10% FBS, 0.0632 µM	93.3	105	–
RPMI 5 mM glucose + 10% FBS, 0.19 µM	110	108	–
RPMI 5 mM glucose + 10% FBS, 0.569 µM	84.5	105	–
RPMI 5 mM glucose + 10% FBS, 1.71 µM	89.7	92.8	–
RPMI 5 mM glucose + 10% FBS, 5.12 µM	57.6	67	–
RPMI 5 mM glucose + 10% FBS, 15.4 µM	30.1	41.5	–
RPMI 5 mM glucose + 10% FBS, 46.1 µM	4.34	4.51	–
RPMI 5 mM glucose + 10% dialyzed FBS, 0.000781 µM	104	106	113
RPMI 5 mM glucose + 10% dialyzed FBS, 0.00234 µM	98.2	108	122
RPMI 5 mM glucose + 10% dialyzed FBS, 0.00702 µM	99.4	111	110
RPMI 5 mM glucose + 10% dialyzed FBS, 0.0211 µM	94.3	108	109
RPMI 5 mM glucose + 10% dialyzed FBS, 0.0632 µM	93	109	103
RPMI 5 mM glucose + 10% dialyzed FBS, 0.19 µM	106	102	95
RPMI 5 mM glucose + 10% dialyzed FBS, 0.569 µM	85.3	104	84.4
RPMI 5 mM glucose + 10% dialyzed FBS, 1.71 µM	66.9	95	61.9
RPMI 5 mM glucose + 10% dialyzed FBS, 5.12 µM	45.1	63.7	29.9
RPMI 5 mM glucose + 10% dialyzed FBS, 15.4 µM	34.5	36.1	5.89
RPMI 5 mM glucose + 10% dialyzed FBS, 46.1 µM	3.22	4.2	5.24

O=C(c1ccc(OCCN2CCCCC2)cc1)c1c(-c2ccc(O)cc2)sc2cc(O)ccc12
AUC of viability dose-response curve
Conditions	NOMO1 [2]	P12-Ichikawa [3]	SEM cells [1]
HPLM + 10% dialyzed FBS	466	442	413
RPMI 5 mM glucose + 10% FBS	475	442	415
RPMI 5 mM glucose + 10% dialyzed FBS	462	413	384

Conditions	cell viability [%]
NOMO1 [5], HPLM + 10% dialyzed FBS, 0.000781 µM	121
NOMO1 [5], HPLM + 10% dialyzed FBS, 0.00234 µM	119
NOMO1 [5], HPLM + 10% dialyzed FBS, 0.00702 µM	134
NOMO1 [5], HPLM + 10% dialyzed FBS, 0.0211 µM	135
NOMO1 [5], HPLM + 10% dialyzed FBS, 0.0632 µM	150
NOMO1 [5], HPLM + 10% dialyzed FBS, 0.19 µM	145
NOMO1 [5], HPLM + 10% dialyzed FBS, 0.569 µM	143
NOMO1 [5], HPLM + 10% dialyzed FBS, 1.71 µM	133
NOMO1 [5], HPLM + 10% dialyzed FBS, 5.12 µM	123
NOMO1 [5], HPLM + 10% dialyzed FBS, 15.4 µM	126
NOMO1 [5], HPLM + 10% dialyzed FBS, 46.1 µM	89.9
SEM cells [4], RPMI 5 mM glucose + 10% FBS, 0.000781 µM	108
SEM cells [4], RPMI 5 mM glucose + 10% FBS, 0.00234 µM	122
SEM cells [4], RPMI 5 mM glucose + 10% FBS, 0.00702 µM	122
SEM cells [4], RPMI 5 mM glucose + 10% FBS, 0.0211 µM	133
SEM cells [4], RPMI 5 mM glucose + 10% FBS, 0.0632 µM	113
SEM cells [4], RPMI 5 mM glucose + 10% FBS, 0.19 µM	42
SEM cells [4], RPMI 5 mM glucose + 10% FBS, 0.569 µM	133
SEM cells [4], RPMI 5 mM glucose + 10% FBS, 1.71 µM	94.1
SEM cells [4], RPMI 5 mM glucose + 10% FBS, 5.12 µM	85.3
SEM cells [4], RPMI 5 mM glucose + 10% FBS, 15.4 µM	117
SEM cells [4], RPMI 5 mM glucose + 10% FBS, 46.1 µM	68.9

C[N]1C=C(C=N1)C2=C3\C=N/NC(=O)C4=C3C(=CC(=C4)NC(=O)[C@H](N)C5CCCCC5)[NH]2
AUC of viability dose-response curve
Conditions	NOMO1 [2]	P12-Ichikawa [3]	SEM cells [1]
HPLM + 10% dialyzed FBS	403	395	309
RPMI 5 mM glucose + 10% FBS	390	387	334
RPMI 5 mM glucose + 10% dialyzed FBS	384	371	283

cell viability [%]
Conditions	NOMO1 [5]	P12-Ichikawa [6]	SEM cells [4]
HPLM + 10% dialyzed FBS, 0.000781 µM	99.8	103	87.7
HPLM + 10% dialyzed FBS, 0.00234 µM	111	103	56.3
HPLM + 10% dialyzed FBS, 0.00702 µM	97.7	99.7	85.5
HPLM + 10% dialyzed FBS, 0.0211 µM	91.1	100	101
HPLM + 10% dialyzed FBS, 0.0632 µM	104	99.7	79
HPLM + 10% dialyzed FBS, 0.19 µM	101	103	90.8
HPLM + 10% dialyzed FBS, 0.569 µM	91.6	94.5	68
HPLM + 10% dialyzed FBS, 1.71 µM	78.3	81.1	58.3
HPLM + 10% dialyzed FBS, 5.12 µM	72.6	65.5	36.5
HPLM + 10% dialyzed FBS, 15.4 µM	35.7	45.1	20.7
HPLM + 10% dialyzed FBS, 46.1 µM	36.6	12.3	11.6
RPMI 5 mM glucose + 10% FBS, 0.000781 µM	95.1	98.4	101
RPMI 5 mM glucose + 10% FBS, 0.00234 µM	97.2	101	67.1
RPMI 5 mM glucose + 10% FBS, 0.00702 µM	93.5	99.1	94.4
RPMI 5 mM glucose + 10% FBS, 0.0211 µM	87	99.9	99.2
RPMI 5 mM glucose + 10% FBS, 0.0632 µM	100	97.3	92.9
RPMI 5 mM glucose + 10% FBS, 0.19 µM	97.9	98.5	103
RPMI 5 mM glucose + 10% FBS, 0.569 µM	84.3	92.7	81.3
RPMI 5 mM glucose + 10% FBS, 1.71 µM	86.4	85.3	50.8
RPMI 5 mM glucose + 10% FBS, 5.12 µM	80.2	61.7	34.5
RPMI 5 mM glucose + 10% FBS, 15.4 µM	26	21.8	22
RPMI 5 mM glucose + 10% FBS, 46.1 µM	29.1	7.78	8.73
RPMI 5 mM glucose + 10% dialyzed FBS, 0.000781 µM	101	96.2	79.8
RPMI 5 mM glucose + 10% dialyzed FBS, 0.00234 µM	90.4	98	50.8
RPMI 5 mM glucose + 10% dialyzed FBS, 0.00702 µM	105	95.2	95.1
RPMI 5 mM glucose + 10% dialyzed FBS, 0.0211 µM	89.7	90.5	86.2
RPMI 5 mM glucose + 10% dialyzed FBS, 0.0632 µM	90.7	94.7	89.5
RPMI 5 mM glucose + 10% dialyzed FBS, 0.19 µM	87	102	90
RPMI 5 mM glucose + 10% dialyzed FBS, 0.569 µM	95.4	85.4	59.3
RPMI 5 mM glucose + 10% dialyzed FBS, 1.71 µM	94.1	79.6	42.2
RPMI 5 mM glucose + 10% dialyzed FBS, 5.12 µM	60.3	58.8	25
RPMI 5 mM glucose + 10% dialyzed FBS, 15.4 µM	20.5	18.4	15.4
RPMI 5 mM glucose + 10% dialyzed FBS, 46.1 µM	29	11.5	7.21
